Measurements reported in patent US20170347651A1, “ACTIVE COMPOUND COMBINATIONS COMPRISING A (THIO)CARBOXAMIDE DERIVATIVE AND FUNGICIDAL COMPOUND(S)” (Bayer CropScience Aktiengesellschaft, priority 2014, published 2017).

Columns and labels:
Septoria tritici = assay: in vivo preventive Septoria tritici test (wheat); settings: 21 days after inoculation
Experimental: (§1) To produce a suitable preparation of active compound, 1 part by weight of active compound or active compound combination is mixed with the stated amounts of solvent and emulsifier, and the concentrate is diluted with water to the desired concentration.
To test for preventive activity, young plants are sprayed with the preparation of active compound or active compound combination at the stated rate of application.
After the spray coating has been dried, the plants are sprayed with a spore suspension of Septoria tritici.
The plants remain for 48 hours in an incubation cabinet at approximately 20° C. and a relative atmospheric humidity of approximately 100% and afterwards for 60 hours at approximately 15° C. in a translucent incubation cabinet at a relative atmospheric humidity of approximately 100%.
The plants are placed in the greenhouse at a temperature of approximately 15° C. and a relative atmospheric humidity of approximately 80%.
The test is evaluated 21 days after the inoculation. 0% means an efficacy which corresponds to that of the untreated control, while an efficacy of 100% means that no disease is observed.

Puccinia triticina = assay: in vivo preventive Puccinia triticina test (wheat); settings: 8 days after inoculation
Experimental: as §1
To test for preventive activity, young plants are sprayed with the preparation of active compound or active compound combination at the stated rate of application. After the spray coating has been dried, the plants are sprayed with a spore suspension of Puccinia triticina. The plants remain for 48 hours in an incubation cabinet at approximately 20° C. and a relative atmospheric humidity of approximately 100%. The plants are placed in the greenhouse at a temperature of approximately 20° C. and a relative atmospheric humidity of approximately 80%.
(§2) The test is evaluated 8 days after the inoculation. 0% means an efficacy which corresponds to that of the untreated control, while an efficacy of 100% means that no disease is observed.

Leptosphaeria nodorum = assay: in vivo preventive Leptosphaeria nodorum test (wheat); settings: 8 days after inoculation
Experimental: as §1
To test for preventive activity, young plants are sprayed with the preparation of active compound or active compound combination at the stated rate of application. After the spray coating has been dried, the plants are sprayed with a spore suspension of Leptosphaeria nodorum. The plants remain for 48 hours in an incubation cabinet at approximately 20° C. and a relative atmospheric humidity of approximately 100%. The plants are placed in the greenhouse at a temperature of approximately 25° C. and a relative atmospheric humidity of approximately 80%.
as §2

Pyrenophora teres = assay: in vivo preventive Pyrenophora teres test (barley); settings: 8 days after inoculation
Experimental: as §1
To test for preventive activity, young plants are sprayed with the preparation of active compound or active compound combination at the stated rate of application. After the spray coating has been dried, the plants are sprayed with a spore suspension of Pyrenophora teres. The plants remain for 48 hours in an incubation cabinet at approximately 20° C. and a relative atmospheric humidity of approximately 100%. The plants are placed in the greenhouse at a temperature of approximately 20° C. and a relative atmospheric humidity of approximately 80%.
as §2

O=C(NCCc1ncc(C(F)(F)F)cc1Cl)c1ccccc1C(F)(F)F [fluopyram]
Efficacy in % found (Septoria tritici; Table A2, wheat, 45 ppm a.i.): 40% | Efficacy in % found (Puccinia triticina; 45 ppm a.i.): 0% | Efficacy in % found (Leptosphaeria nodorum; 9.375 ppm a.i.): 0% | Efficacy in % found (Pyrenophora teres; 37.5 ppm a.i.): 43%

CC(C)(C)C(O)(CCc1ccc(Cl)cc1)Cn1cncn1 (stereo not drawn) [tebuconazole]
Efficacy in % found (Septoria tritici; Table A2, wheat, 60 ppm a.i.): 20% | Efficacy in % found (Puccinia triticina; 30 ppm a.i.): 30% | Efficacy in % found (Leptosphaeria nodorum; 25 ppm a.i.): 0% | Efficacy in % found (Pyrenophora teres; 50 ppm a.i.): 0%

OC(Cc1ccccc1Cl)(Cn1nc[nH]c1=S)C1(Cl)CC1 (stereo not drawn) [prothioconazole]
Efficacy in % found (Septoria tritici; Table A1, wheat, 200 ppm a.i.): 30% | Efficacy in % found (Septoria tritici; Table A2, wheat, 60 ppm a.i.): 40% | Efficacy in % found (Septoria tritici; Table A2, wheat, 90 ppm a.i.): 20% | Efficacy in % found (Puccinia triticina; 30 ppm a.i.): 0% | Efficacy in % found (Puccinia triticina; 90 ppm a.i.): 20% | Efficacy in % found (Leptosphaeria nodorum; 18.75 ppm a.i.): 0% | Efficacy in % found (Leptosphaeria nodorum; 25 ppm a.i.): 0% | Efficacy in % found (Pyrenophora teres; 50 ppm a.i.): 0% | Efficacy in % found (Pyrenophora teres; 75 ppm a.i.): 0%

CC(C)c1ccc(Cl)cc1CN(C(=O)c1c(C(F)F)nn(C)c1F)C1CC1 [A5, N-(5-chloro-2-isopropylbenzyl)-N-cyclopropyl-3-(difluoromethyl)-5-fluoro-1-methyl-1H-pyrazole-4-carboxamide]
Efficacy in % found (Septoria tritici; Table A1, wheat, 20 ppm a.i.): 10% | Efficacy in % found (Septoria tritici; Table A2, wheat, 15 ppm a.i.): 30% | Efficacy in % found (Septoria tritici; Table A2, wheat, 30 ppm a.i.): 50% | Efficacy in % found (Puccinia triticina; 7.5 ppm a.i.): 30% | Efficacy in % found (Puccinia triticina; 15 ppm a.i.): 50% | Efficacy in % found (Puccinia triticina; 30 ppm a.i.): 70% | Efficacy in % found (Leptosphaeria nodorum; 6.25 ppm a.i.): 17% | Efficacy in % found (Leptosphaeria nodorum; 12.5 ppm a.i.): 33% | Efficacy in % found (Pyrenophora teres; 25 ppm a.i.): 71%

CON=C(C(=O)OC)c1ccccc1CON=C(C)c1cccc(C(F)(F)F)c1 [trifloxystrobin]
Efficacy in % found (Septoria tritici; Table A1, wheat, 20 ppm a.i.): 30%
